Test results taken from patent US5861300A, “Antiviral transgenic plants, vectors, cells and methods” (The Cleveland Clinic Foundation, priority 1995, dated 1999).
Each block holds one molecule with its values, some of them ahead of it.

Experiments:
[1] = tested on: human 2-5A-dependent RNase (recombinant and HeLa cell); experiment: uv covalent crosslinking of 2-5A probe with unlabeled oligonucleotide competitors; format: binding; conditions: competitor 100 nM; recombinant human enzyme in wheat germ extract; same pattern in HeLa cell extract
Protocol: (§1) The synthesis of the 2-5A probe, p(A2'p)2 (br^8 A2'p)2 A[32P]Cp, and its crosslinking to 2-5A-dependent RNase is performed exactly as described. See Nolan-Sorden, N. L. et al., Anal. Biochem., 184:298-304 (1990). Briefly, the 2-5A probe, about 0.7 to 2.5 nM at […], is incubated for about one hour on ice with cell extract prepared as described, Silverman, R. H. and Krause, D., I.R.L. Press, Oxford, England, pp. 149-193 (1987), in the absence or presence of unlabeled oligonucleotide competitors. Covalent crosslinking is done under a uv lamp (308 nm) for one hour on ice and the proteins are separated on SDS/10% polyacrylamide gels. Filter assays for 2-5A binding activity using the 2-5A probe for about one hour on ice, as described in Knight, M. et al., Nature, 288:189-192 (1980).

[2] = tested on: murine 2-5A-dependent RNase (truncated recombinant clone ZB1 and naturally occurring L929 cell enzyme); experiment: as above; format: binding; conditions: for competition with 2-5A probe for binding to protein: competitor 100 nM, recombinant 74 kDa protein in wheat germ extract, similar profile with L929 cell enzyme; for concentration required to prevent 2-5A probe binding: both proteins (recombinant ZB1 and naturally occurring)
Protocol: as §1

2-5A probe = experiment: 2-5A binding activity of nested 3'-deletion clones (filter binding and uv crosslinking); conditions: expressed in wheat germ extract
Protocol: The set of nested 3'-deletions of the truncated murine 2-5A-dependent RNase cDNA, ZB1, is generated with exonuclease III/S1 nuclease digestion followed by filling-in with Klenow DNA Polymerase using the "Erase-A-Base"system (Promega).
as §1

32P-2-5A probe = experiment: 2-5A binding of lysine to asparagine mutants, uv crosslinking, phosphorimager analysis; conditions: wheat germ translation products; phosphorimager analysis of dried gel
Protocol: Briefly, the 2-5A probe, about 0.7 to 2.5 nM at 3,0009 Ci/mmole, is incubated for about one hour on ice with cell extract prepared as described, Silverman, R. H. and Krause, D., I.R.L. Press, Oxford, England, pp. 149-193 (1987), in the absence or presence of unlabeled oligonucleotide competitors. Covalent crosslinking is done under a uv lamp (308 nm) for one hour on ice and the proteins are separated on SDS/10% polyacrylamide gels.
The lysines in the truncated murine 2-5A-dependent RNase, clone ZB1, at positions 240 and 274 are mutated, individually and together, to asparagine residues.

poly(U) = experiment: ribonuclease assay with 2-5A-cellulose; format: biochemical; conditions: enzyme made in reticulocyte lysate, bound to 2-5A-cellulose, 30° C.
Protocol: (§2) Transcription of plasmids with phage RNA polymerases is in the presence of mGppppG as described (Promega) except that reaction mixtures are supplemented with 15% dimethyl sulfoxide and incubations are at about 37° C. for about 90 minutes. RNA is purified through Sephadex G50 spun-columns and ethanol precipitated prior to translation. Protein synthesis was performed, as described (Promega), at about 30° C. for about one hour in micrococcal nuclease-pretreated rabbit reticulocyte lysate or in an extract of wheat germ at about room temperature for about one hour and then at about […] for about 12 hours. Translation reactions contain about 50 μM zinc sulfate. […]
(§3) The ribonuclease assay with 2-5A-cellulose is performed, as described by Silverman, R. H., Anal. Biochem., 144:450-460 (1985). […] The matrix is then incubated with poly(U)-[^32 P]Cp or poly(C)-[^32 P]Cp (both at about 16 μM in nucleotide equivalents) at about 30° C. and the levels of acid-precipitable radioactive RNA are determined by filtration on glass-fiber filters.

poly(C) = experiment: ribonuclease assay with 2-5A-cellulose; format: biochemical; conditions: after one hour of incubation; enzyme bound to 2-5A-cellulose
Protocol: as §2, §3

Molecule: (A2'p)2 A
competition with 2-5A probe for binding to protein [1]: not prevented
fold higher concentration than trimer 2-5A required to prevent probe binding ([2]; both proteins): 500 fold
competition with 2-5A probe for binding to protein [2]: fails to interfere with binding
concentration required to prevent 2-5A probe binding ([2]; probe 2.4 nM): 10 µM

Molecule: p3 (A2'p)2 A
competition with 2-5A probe for binding to protein [1]: effectively competes
competition with 2-5A probe for binding to protein [2]: completely prevents probe binding
concentration that prevents the 2-5A probe from binding ([2]; probe 2.4 nM, either protein (recombinant ZB1 and naturally occurring)): about 20 nM

Molecule: p3 A2'pA
concentration required to prevent 2-5A probe binding ([2]; probe 2.4 nM): > 10 µM

Molecule: p3 I2'pA2'pA
concentration required to prevent 2-5A probe binding ([2]; probe 2.4 nM): about 1.0 μM

2-5A binding activity relative to clone ZB1 (2-5A probe): about 38.3%
B1: ZB13: murine 2-5A-dependent RNase deletion mutant, amino acids 1 to 294 (protein, UniProt Q05921 1-294, looked up, fragment)
chain: METPDYNTPQGGTPSAGSQRTVVEDDSSLIKAVQKGDVVRVQQLLEKGADANACEDTWGWTPLHNAVQAGRVDIVNLLLSHGADPHRRKKNGATPFIIAGIQGDVKLLEILLSCGADVNECDENGFTAFMEAAERGNAEALRFLFAKGANVNLRRQTTKDKRRLKQGGATALMSAAEKGHLEVLRILLNDMKAEVDARDNMGRNALIRTLLNWDCENVEEITSILIQHGADVNVRGERGKTPLIAAVERKHTGLVQMLLSREGINIDARDNEGKTALLIAVDKQLKEIVQLLLE

2-5A binding activity relative to clone ZB1 (control) (32P-2-5A probe): 12.2%
B2: ZB1(Lys^240,274 -)Asn): double mutant of clone ZB1, lysines 240 and 274 replaced by asparagine (protein, UniProt Q05921 1-735, looked up, variant K240N K274N)
2-5A-dependent ribonuclease: METPDYNTPQGGTPSAGSQRTVVEDDSSLIKAVQKGDVVRVQQLLEKGADANACEDTWGWTPLHNAVQAGRVDIVNLLLSHGADPHRRKKNGATPFIIAGIQGDVKLLEILLSCGADVNECDENGFTAFMEAAERGNAEALRFLFAKGANVNLRRQTTKDKRRLKQGGATALMSAAEKGHLEVLRILLNDMKAEVDARDNMGRNALIRTLLNWDCENVEEITSILIQHGADVNVRGERGNTPLIAAVERKHTGLVQMLLSREGINIDARDNEGNTALLIAVDKQLKEIVQLLLEKGADKCDDLVWIARRNHDYHLVKLLLPYVANPDTDPPAGDWSPHSSRWGTALKSLHSMTRPMIGKLKIFIHDDYKIAGTSEGAVYLGIYDNREVAVKVFRENSPRGCKEVSCLRDCGDHSNLVAFYGREDDKGCLYVCVSLCEWTLEEFLRLPREEPVENGEDKFAHSILLSIFEGVQKLHLHGYSHQDLQPQNILIDSKKAVRLADFDQSIRWMGESQMVRRDLEDLGRLVLYVVMKGEIPFETLKTQNDEVLLTMSPDEETKDLIHCLFSPGENVKNCLVDLLGHPFFWTWENRYRTLRNVGNESDIKVRKCKSDLLRLLQHQTLEPPRSFDQWTSKIDKNVMDEMNHFYEKRKKNPYQDTVGDLLKFIRNIGEHINEEKKRGMKEILGDPSRYFQETFPDLVIYIYKKLKETEYRKHFPQPPPRLSVPEAVGPGGIQS

B3: recombinant human 2-5A-dependent RNase: full-length human 2-5A-dependent RNase translated in vitro in reticulocyte lysate (protein, UniProt Q05823 1-741, looked up)
chain: MESRDHNNPQEGPTSSSGRRAAVEDNHLLIKAVQNEDVDLVQQLLEGGANVNFQEEEGGWTPLHNAVQMSREDIVELLLRHGADPVLRKKNGATPFILAAIAGSVKLLKLFLSKGADVNECDFYGFTAFMEAAVYGKVKALKFLYKRGANVNLRRKTKEDQERLRKGGATALMDAAEKGHVEVLKILLDEMGADVNACDNMGRNALIHALLSSDDSDVEAITHLLLDHGADVNVRGERGKTPLILAVEKKHLGLVQRLLEQEHIEINDTDSDGKTALLLAVELKLKKIAELLCKRGASTDCGDLVMTARRNYDHSLVKVLLSHGAKEDFHPPAEDWKPQSSHWGAALKDLHRIYRPMIGKLKFFIDEKYKIADTSEGGIYLGFYEKQEVAVKTFCEGSPRAQREVSCLQSSRENSHLVTFYGSESHRGHLFVCVTLCEQTLEACLDVHRGEDVENEEDEFARNVLSSIFKAVQELHLSCGYTHQDLQPQNILIDSKKAAHLADFDKSIKWAGDPQEVKRDLEDLGRLVLYVVKKGSISFEDLKAQSNEEVVQLSPDEETKDLIHRLFHPGEHVRDCLSDLLGHPFFWTWESRYRTLRNVGNESDIKTRKSESEILRLLQPGPSEHSKSFDKWTTKINECVMKKMNKFYEKRGNFYQNTVGDLLKFIRNLGEHIDEEKHKKMKLKIGDPSLYFQKTFPDLVIYVYTKLQNTEYRKHFPQTHSPNKPQCDGAGGASGLASPGC
modifications: full-length
notes: full-length human 2-5A-dependent RNase translated in vitro in reticulocyte lysate
half-life of poly(U) degradation (poly(U)): about 10 minutes
poly(C) degraded (poly(C)): 20%

loss of 2-5A binding activity as compared to clone ZB1 (2-5A probe): about 26%
B4: ZB11: murine 2-5A-dependent RNase deletion mutant, amino acid residues 1 to 342 (protein, UniProt Q05921 1-342, looked up, fragment)
chain: METPDYNTPQGGTPSAGSQRTVVEDDSSLIKAVQKGDVVRVQQLLEKGADANACEDTWGWTPLHNAVQAGRVDIVNLLLSHGADPHRRKKNGATPFIIAGIQGDVKLLEILLSCGADVNECDENGFTAFMEAAERGNAEALRFLFAKGANVNLRRQTTKDKRRLKQGGATALMSAAEKGHLEVLRILLNDMKAEVDARDNMGRNALIRTLLNWDCENVEEITSILIQHGADVNVRGERGKTPLIAAVERKHTGLVQMLLSREGINIDARDNEGKTALLIAVDKQLKEIVQLLLEKGADKCDDLVWIARRNHDYHLVKLLLPYVANPDTDPPAGDWSPHSSRW

2-5A binding activity relative to clone ZB1 (2-5A probe): 1.9%
B5: ZB14: murine 2-5A-dependent RNase deletion mutant, amino acids 1 to 265, one P-loop motif deleted (protein, UniProt Q05921 1-265, looked up, fragment)
chain: METPDYNTPQGGTPSAGSQRTVVEDDSSLIKAVQKGDVVRVQQLLEKGADANACEDTWGWTPLHNAVQAGRVDIVNLLLSHGADPHRRKKNGATPFIIAGIQGDVKLLEILLSCGADVNECDENGFTAFMEAAERGNAEALRFLFAKGANVNLRRQTTKDKRRLKQGGATALMSAAEKGHLEVLRILLNDMKAEVDARDNMGRNALIRTLLNWDCENVEEITSILIQHGADVNVRGERGKTPLIAAVERKHTGLVQMLLSREGIN

B6: ZB15: murine 2-5A-dependent RNase deletion mutant, amino acids 1 to 218, both P-loop motifs deleted (protein, UniProt Q05921 1-218, looked up, fragment)
chain: METPDYNTPQGGTPSAGSQRTVVEDDSSLIKAVQKGDVVRVQQLLEKGADANACEDTWGWTPLHNAVQAGRVDIVNLLLSHGADPHRRKKNGATPFIIAGIQGDVKLLEILLSCGADVNECDENGFTAFMEAAERGNAEALRFLFAKGANVNLRRQTTKDKRRLKQGGATALMSAAEKGHLEVLRILLNDMKAEVDARDNMGRNALIRTLLNWDCENV
2-5A binding activity relative to clone ZB1 (2-5A probe): completely lacking in 2-5A binding activity
